Tests used:
P-388 cells = experiment: Inhibition of cell growth by counting cells; assay type: cell-based; settings: Mus musculus, 72 h; p388 cells, three days of incubation
From the text: (§1) The finality of these assays is to interrupt the growth of a “in vitro” tumor cell culture by means a continued exhibition of the cells to the sample to be testing.
(§2) This form of the assay employs 24 well multidishes of 16 mm diameter (Bergeron, 1984; Schroeder, 1981). The tumor cell lines employed are: P-388 (ATCC CCL 46), suspension culture of a lymphoid neoplasm from a DBA/2 mouse; A-549 (ATCC CCL 185), monolayer culture of a human lung carcinoma; HT-29 (ATCC HTB-38), monolayer culture of a human colon carcinoma; MEL-28 (ATCC HTB-72), monolayer culture of a human melanoma and DU-145 (ATCC HTB-81), monolayer culture of a human prostate carcinoma.
(§3) Cells were maintained, in logarithmic phase of growth in Eagle's Minimum Essential Medium, with Earle's Balanced Salts, with non-essential amino acids, with 2.0 mM L-Glutamine, without sodium bicarbonate (EMEM/neaa), supplemented with 10% Fetal Calf Serum (FCS), 10^−2 M. sodium bicarbonate and 0.1 U/1 penicillin G+0.1 g/l streptomycin sulfate.
P-388 cells were seeded into 16 mm diameter wells at 1×10^4 cells per well in 1 ml aliquots of EMEM 5% FCS containing different concentrations of the sample to be tested. […]
For quantifying the activity, after the incubation time, cells are trypsinized and counted in a Coulter Counter ZM. […]

A-549 cells = experiment: Inhibition of cell growth by counting cells; assay type: cell-based; settings: Homo sapiens, 72 h; a549 cells, three days of incubation
From the text: as §1, §2, §3
(§4) A-549, HT-29, MEL-28 and DU-145 cells were seeded into 16 mm diameter wells at 1×10^4 cells per well in 1 ml aliquots of EMEM 5% FCS containing different concentrations of the sample to be tested. A separate set of cultures without drug was seeded as control of growth, to ensure that cells remained in exponential phase of growth. All determinations are caring out in duplicate. After three days of incubation at 37° C., 5% CO2 in a 98% humid atmosphere cells were stained with 0.1% crystal violet. An approximately IC50 was determined by comparing the growth in wells with drug to the growth in wells control.
(§5) For quantifying the activity, after the incubation time, cells are trypsinized and counted in a Coulter Counter ZM. All counts (net cells per well), represent the average of duplicate wells. % G, percent of growth relative to cultures without drug.
(§6) For this technique, compounds which show IC50 values smaller than 1 μg/ml are selected to continue with further studies.

HT-29 cells = experiment: Inhibition of cell growth by counting cells; assay type: cell-based; settings: Homo sapiens, HT-29, 72 h; ht29 cells, three days of incubation
From the text: as §1, §2, §3, §4, §5, §6

MEL-28 cells = experiment: Inhibition of cell growth by counting cells; assay type: cell-based; settings: Homo sapiens, SK-MEL-28, 72 h; mel28 cells, three days of incubation
From the text: as §1, §2, §3, §4, §5, §6

A-549 = experiment: cells; settings: Homo sapiens, A549, 48 h
How it was run: (§7)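 Colorimetric SRB read (490 nm) on triplicate wells after 48 h at 37 °C, 5% CO2. Dose range 10 to 10^−8 μg/ml; 5×10^3 cells/well pre-attached 18 h.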

HT-29 = experiment: cells; settings: Homo sapiens, HT-29, 48 h
How it was run: as §7

A-498 = experiment: Inhibition of cells growth by colorimetric assay (SRB)
How it was run: as §7

DU-145 = experiment: as above; settings: Homo sapiens, DU-145, 48 h
How it was run: as §7

MCF-7 = experiment: as above
How it was run: as §7

MDA-MB-231 = experiment: as above
How it was run: as §7

OVCAR-3 = experiment: as above
How it was run: as §7

SK-MEL-28 = experiment: as above; settings: Homo sapiens, SK-MEL-28, 48 h
How it was run: as §7

SW620 = experiment: as above
How it was run: as §7

DU-145 cells = experiment: Inhibition of cell growth by counting cells; assay type: cell-based; settings: Homo sapiens, DU-145, 72 h; du145 cells, three days of incubation
From the text: as §1, §2, §3, §4, §5, §6

How did the IC50 (P-388 cells) turn out when `COc1c(C)cc2c(c1O)[C@@H]1C3[C@@H]4SCC(=O)C(=O)OC[C@@H](c5c6c(c(C)c(OC(C)=O)c54)OCO6)N3[C@@H](C#N)[C@H](C2)N1C` (stereo partly drawn) [compound 16] was run?
The IC50 was 16.3 nM.

What about the IC50 (A-549 cells) of the same molecule?
The IC50 was 16.3 nM.

And the IC50 (HT-29 cells)?
The IC50 was 16.3 nM.

And the IC50 (MEL-28 cells)?
Its IC50 is 16.3 nM.

`COc1c(C)cc2c(c1O)C1C3[C@@H]4SCC(=O)C(=O)OC[C@@H](c5c6c(c(C)c(OC(C)=O)c54)OCO6)N3[C@@H](O)[C@H](C2)N1C` (stereo partly drawn) [Et-594] was tested. Which GI50 (A-549; read-out: A549 GI50) did it give?
Its GI50 is 49 nM.

And the CC50 (A-549; read-out: A549 LC50)?
The CC50 was 654 nM.

And the IC (TGI) (A-549; read-out: A549 TGI)?
Its IC (TGI) is 131 nM.

And the GI50 (HT-29; read-out: HT29 GI50)?
The GI50 was 49 nM.

And the CC50 (HT-29; read-out: HT29 LC50)?
The CC50 was 1630 nM.

What about the IC (TGI) (HT-29; read-out: HT29 TGI) of the same molecule?
The IC (TGI) was 98 nM.

And the “A498 TGI” value (A-498; A498, SRB, 48 hours exposure)?
The value was 3.27E−07 Molar.

And the GI50 (A-498; Homo sapiens, A498, 48 h, read-out: A498 GI50)?
The GI50 was 81.7 nM.

What about the CC50 (A-498; Homo sapiens, A498, 48 h, read-out: A498 LC50) of the same molecule?
The CC50 was 11400 nM.

What about the GI50 (DU-145; read-out: DU145 GI50) of the same molecule?
The GI50 was 32.7 nM.

And the CC50 (DU-145; read-out: DU145 LC50)?
Its CC50 is 163 nM.

What about the IC (TGI) (DU-145; read-out: DU145 TGI) of the same molecule?
Its IC (TGI) is 81.7 nM.

And the GI50 (MCF-7; Homo sapiens, MCF7, 48 h, read-out: MCF GI50)?
The GI50 was 32.7 nM.

What about the CC50 (MCF-7; Homo sapiens, MCF7, 48 h, read-out: MCF LC50) of the same molecule?
The CC50 was 3270 nM.

What about the “MCF TGI” value (MCF-7; MCF, SRB, 48 hours exposure) of the same molecule?
The value was 9.80E−08 Molar.

What about the GI50 (MDA-MB-231; Homo sapiens, MDA-MB-231, 48 h, read-out: MB231 GI50) of the same molecule?
The GI50 was 32.7 nM.

What about the CC50 (MDA-MB-231; Homo sapiens, MDA-MB-231, 48 h, read-out: MB231 LC50) of the same molecule?
The CC50 was 1630 nM.

And the “MB231 TGI” value (MDA-MB-231; MB231, SRB, 48 hours exposure)?
The value was 1.14E−07 Molar.

What about the GI50 (OVCAR-3; Homo sapiens, OVCAR-3, 48 h, read-out: OVCAR GI50) of the same molecule?
Its GI50 is 32.7 nM.

And the CC50 (OVCAR-3; Homo sapiens, OVCAR-3, 48 h, read-out: OVCAR LC50)?
The CC50 was 16300 nM.

And the “OVCAR TGI” value (OVCAR-3; OVCAR, SRB, 48 hours exposure)?
Its value is 1.14E−07 Molar.

And the GI50 (SK-MEL-28; read-out: MEL-28 GI50)?
The GI50 was 32.7 nM.

What about the CC50 (SK-MEL-28; read-out: MEL-28 LC50) of the same molecule?
The CC50 was 131 nM.

And the IC (TGI) (SK-MEL-28; read-out: MEL-28 TGI)?
The IC (TGI) was 65.4 nM.

What about the GI50 (SW620; Homo sapiens, SW-620, 48 h, read-out: SW-620 GI50) of the same molecule?
Its GI50 is 32.7 nM.

And the CC50 (SW620; Homo sapiens, SW-620, 48 h, read-out: SW-620 LC50)?
The CC50 was 3270 nM.

What about the “SW-620 TGI” value (SW620; SW-620, SRB, 48 hours exposure) of the same molecule?
Its value is 9.80E−08 Molar.

With `COc1c(C)cc2c(c1O)[C@@H]1C3[C@@H]4SCC(NC(C)=O)C(=O)OC[C@@H](c5c6c(c(C)c(OC(C)=O)c54)OCO6)N3[C@@H](C#N)[C@H](C2)N1C` (stereo partly drawn) [compound 19] as the molecule, how does the IC50 (P-388 cells) read?
The IC50 was 0.753 nM.

What about the IC50 (A-549 cells) of the same molecule?
The IC50 was 0.753 nM.

And the IC50 (DU-145 cells)?
Its IC50 is 0.753 nM.

And the IC50 (HT-29 cells)?
Its IC50 is 0.753 nM.

And the IC50 (MEL-28 cells)?
The IC50 was 0.753 nM.

— patent US7767659B2, “Synthesis of naturally occurring ecteinascidins and related compounds” (Pharma Mar, S.A., priority 2002, dated 2010)
